Reference: PubChem BioAssay (NCI)
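Results reflect a 48-hour exposure of cells in 96-well plates to compound at five concentrations. Abbreviation: GI50, concentration required for 50% inhibition of growth. The concentration for full growth arrest is given as TGI.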

Columns and labels:
Assay in all cases: NCI-60 cell line screen, 48 h
ACHN renal = test system: ACHN renal
HCT-116 colon = test system: HCT-116 colon
K-562 leukemia = test system: K-562 leukemia
KM12 colon = test system: KM12 colon
NCI-H226 lung = test system: NCI-H226 lung
NCI-H23 lung = test system: NCI-H23 lung
OVCAR-5 ovarian = test system: OVCAR-5 ovarian
SK-MEL-28 melanoma = test system: SK-MEL-28 melanoma
SW-620 colon = test system: SW-620 colon
TK-10 renal = test system: TK-10 renal

| Compound | TGI (ACHN renal) | TGI (HCT-116 colon) | TGI (K-562 leukemia) | TGI (KM12 colon) | TGI (NCI-H226 lung) | TGI (NCI-H23 lung) | TGI (OVCAR-5 ovarian) | TGI (SK-MEL-28 melanoma) | TGI (SW-620 colon) | TGI (TK-10 renal) | GI50 (ACHN renal) | GI50 (HCT-116 colon) | GI50 (K-562 leukemia) | GI50 (KM12 colon) | GI50 (NCI-H226 lung) | GI50 (NCI-H23 lung) | GI50 (OVCAR-5 ovarian) | GI50 (SK-MEL-28 melanoma) | GI50 (SW-620 colon) | GI50 (TK-10 renal) |
| --- | --- | --- | --- | --- | --- | --- | --- | --- | --- | --- | --- | --- | --- | --- | --- | --- | --- | --- | --- | --- |
| CCOC(=O)c1cc(-c2ccc(-c3cc(C(=O)OCC)c(C#N)c(N)c3C#N)cc2)c(C#N)c(N)c1C#N | > 100 µM | > 100 µM | > 100 µM | > 100 µM | > 100 µM | > 100 µM | > 100 µM | > 100 µM | > 100 µM | > 100 µM |  |  |  |  |  |  |  |  |  |  |
| CCCCCCSSC(=S)N(CC)CC | 41.7 µM | 28.5 µM | 39.5 µM | 32.1 µM | > 100 µM | 92.8 µM | 35.9 µM | 61.4 µM | 39.6 µM | 56.7 µM | 20.1 µM | 14.4 µM | 14.7 µM | 15.2 µM | 35.4 µM | 27.8 µM | 20.5 µM | 25 µM | 18.5 µM | 25.8 µM |
| CS(=O)(=O)OCCCNCCCOS(C)(=O)=O | 3580 µM | 5670 µM | 9080 µM | 5510 µM | 5860 µM | 5630 µM | 6290 µM | 7560 µM | 6720 µM | 6930 µM |  |  |  |  |  |  |  |  |  |  |
| O=C(NCC(F)(F)F)Nc1cccc(-c2cnc3cc(-c4ccc(F)cc4)ccn23)c1 | > 52.1 µM | 14.7 µM | 10.9 µM | 31.7 µM | > 100 µM | 20.8 µM | > 86.3 µM | > 83 µM | 36.8 µM | 17.7 µM | 2.53 µM | 0.539 µM | 0.376 µM | 0.347 µM | 3.99 µM | 1.65 µM | 8.33 µM | 9.16 µM | 0.515 µM | 1.02 µM |
| CCCCC#Cc1c(I)n(C)c(=O)[nH]c1=O | 3.08 µM | 3.07 µM | 3.46 µM | 29.5 µM | 27.4 µM | 4.43 µM | 19.2 µM | 3.13 µM | 3.05 µM | 16 µM | 1.71 µM | 1.7 µM | 1.82 µM | 16 µM | 14.4 µM | 2.14 µM | 6.38 µM | 1.75 µM | 1.66 µM | 4.76 µM |
| O=C(O)/C(Cc1ccnc2ccccc12)=N\O | > 100 µM | > 100 µM | > 100 µM | > 100 µM | > 100 µM | > 100 µM | > 100 µM | > 100 µM | > 100 µM | > 100 µM |  |  |  |  |  |  |  |  |  |  |
| O=C1CSC(c2ccccc2Cl)N1c1nnc(Cn2cnnc2)o1 (stereo not given) | 48.6 µM | 18.4 µM | 16.2 µM | 20.3 µM | 36.1 µM | > 100 µM | 44.3 µM | 45.8 µM | 27.5 µM | 81.9 µM | 14.3 µM | 4.09 µM | 3.33 µM | 5.2 µM | 17.3 µM | 16.4 µM | 20.4 µM | 12.3 µM | 4.73 µM | 22.8 µM |
| C#Cc1cccc(Nc2nc(Cl)nc3cc(NC(=O)CCl)ccc23)c1 | 4.63 µM | 0.975 µM | 3.03 µM | 4.22 µM | 5.27 µM | 3.77 µM | 4.45 µM | 6.12 µM | 1.21 µM | 5.29 µM | 1.48 µM | 0.449 µM | 0.792 µM | 1.13 µM | 1.61 µM | 0.962 µM | 1.41 µM | 2.85 µM | 0.51 µM | 1.74 µM |
| Cn1cc(C2=C(c3c[nH]c4ccccc34)C(=O)NC2=O)c2ccccc21 | > 25 µM | > 25 µM | > 25 µM | > 25 µM | > 25 µM | > 25 µM | > 25 µM | > 25 µM | > 25 µM | > 25 µM | 1.73 µM | 1.51 µM | 0.704 µM | 0.586 µM | 1.99 µM | 0.218 µM | > 25 µM | 7 µM | > 4.92 µM | 0.132 µM |
| CC(C)N(Cc1ccc(CN(C(=O)CCl)C(C)C)cc1)C(=O)CCl | 3.74 µM | 5.62 µM | 18.3 µM | 3.54 µM | 9.44 µM | 3.6 µM | 3.97 µM | 6.52 µM | 4.22 µM | 6.64 µM | 1.88 µM | 1.65 µM | 2.28 µM | 1.75 µM | 3.25 µM | 1.1 µM | 1.91 µM | 2.36 µM | 1.45 µM | 2.69 µM |
| CC(C)c1cccc(C(C)C)c1N1C(=O)C(=O)C(c2nc3ccccc3o2)C(=O)C1=O | > 100 µM | > 100 µM | > 100 µM | > 100 µM | > 100 µM | > 100 µM | > 100 µM | > 100 µM | > 100 µM | > 100 µM |  |  |  |  |  |  |  |  |  |  |
| NC(=O)c1ccc(Oc2nccc(-c3c(-c4ccc(F)cc4)ncn3C3CCNCC3)n2)cc1 | > 25 µM | > 25 µM | > 25 µM | > 25 µM | > 25 µM | > 25 µM | > 25 µM | > 25 µM | > 25 µM | > 25 µM | > 25 µM | > 25 µM | > 25 µM | > 25 µM | > 25 µM | > 25 µM | > 25 µM | > 25 µM | > 25 µM | > 25 µM |
